The results in this text go back to patent US7250521B2, “Method for production of Δ1-pyrrolines” (Bayer CropScience Aktiengesellschaft, priority 2001, dated 2007).

The data set in a line: logP determination by HPLC on reverse-phase column (C 18), EEC directive 79/831 Annex V.A8. The data set is classed as physicochemical. The protocol: In the acidic range, the determination is carried out at pH 2.3 using the mobile phases 0.1% aqueous phosphoric acid and acetonitrile; linear gradient from 10% acetonitrile to 90% acetonitrile.
In the neutral range, the determination is carried out at pH 7.5 using the mobile phases 0.01 molar aqueous phosphate buffer solution and acetonitrile; linear gradient from 10% acetonitrile to 90% acetonitrile.

[1] abbreviates: reverse-phase HPLC column (C 18), pH 2.3, acidic range, pH 2.3; 0.1% aqueous phosphoric acid/acetonitrile gradient; 43° C.; values marked a).
Where [2] appears, read: reverse-phase HPLC column (C 18), pH 7.5, neutral range, pH 7.5; 0.01 molar aqueous phosphate buffer/acetonitrile gradient; 43° C.; values marked b).

`Cc1ccc(C2CCC(c3ccccc3F)=N2)c(Cl)c1` (centres unmarked) [Example 50]: the chromatographic logP (in general, lipophilicity estimated from chromatographic retention) was determined as 2.39 under setting [1] and 4.74 under setting [2].

Consider `Oc1ccc(C2CCC(c3ccccc3F)=N2)cc1` (centres unmarked) [Example 104], for which the chromatographic logP under setting [1] amounted to 0.59.

Take `CC(C)(C)Sc1ccc(C2CCC(=O)N2)cc1` (centres unmarked) [Example V-26]: the chromatographic logP under setting [1] is 2.69.

`Cc1cccc(C)c1C1=NC(c2ccc(-c3ccc(OC(F)(F)F)cc3)cc2)CC1` (centres unmarked) [Example 6]: under setting [1], the chromatographic logP came to 5.7.

On to `CC(C)Sc1ccc(C2CCC(c3c(F)cccc3F)=N2)cc1` (centres unmarked) [Example 36], for which the chromatographic logP under setting [1] was 2.18.

`CC(C)c1ccc(C2CCC(=O)N2C(=O)OC(C)(C)C)cc1` (centres unmarked) [III-5] gave a chromatographic logP under setting [1] of 3.65.

Take `Cc1ccc(C2CCC(=O)N2C(=O)OC(C)(C)C)cc1` (centres unmarked) [III-20]: the chromatographic logP under setting [1] is 2.9.

Take `Clc1ccccc1C1=NC(c2ccccc2)CC1` (centres unmarked) [Example 91]: the chromatographic logP runs as follows: under setting [1], 1.64; under setting [2], 3.61.

Turning to `Brc1ccccc1C1=NC(c2ccc(C3CCCCC3)cc2)CC1` (centres unmarked) [Example 77], the chromatographic logP by setting is: under setting [1], 4.23; under setting [2], 6.03.

As to `Fc1ccc(C2CCC(c3ccccc3Cl)=N2)c(F)c1` (centres unmarked) [Example 60], the chromatographic logP reads like this: under setting [1], 2.9; under setting [2], 3.96.

In turn, `Clc1ccc(C2CCC(c3ccccc3Cl)=N2)c(Cl)c1` (centres unmarked) [Example 46] displayed a chromatographic logP under setting [1] of 4.66 and a chromatographic logP under setting [2] of 5.2.

Take `COc1ccc(C2CCC(c3ccccc3Cl)=N2)cc1` (centres unmarked) [Example 86]: the chromatographic logP is 1.66 under setting [1] and 3.47 under setting [2].

Compound `Fc1cc(F)c(C2=NC(c3ccc(-c4ccc(OC(F)(F)F)cc4)cc3)CC2)c(F)c1` (centres unmarked) [Example 117] had a chromatographic logP under setting [1] of 4.57.

Take `Fc1cccc(F)c1C1=NC(c2ccccc2)CC1` (centres unmarked) [Example 93]: the chromatographic logP under setting [1] stood at 1.75.

`O=C1CCC(c2ccc(OC(F)(F)F)cc2)N1` (centres unmarked) [Example V-1, 5-[4-(trifluoromethoxy)phenyl]-2-pyrrolidinone]: the chromatographic logP under setting [1] came to 2.

As to `Fc1ccc(C2CCC(c3ccc(Br)cc3)=N2)cc1` (centres unmarked) [Example 100], the chromatographic logP is, setting by setting: under setting [1], 1.73; under setting [2], 4.14.

The compound `Fc1cccc(F)c1C1=NC(c2ccc(OCc3ccc(OC(F)(F)F)cc3)cc2)CC1` (centres unmarked) [Example 109] displayed a chromatographic logP under setting [1] of 3.61.

In the case of `O=C1CCC(c2ccc(-c3ccc(Br)cc3)cc2)N1` (centres unmarked) [Example V-28], the chromatographic logP under setting [1] was 2.76.

`Fc1ccc(C2CCC(c3ccccc3Br)=N2)cc1F` (centres unmarked) [Example 56]: the chromatographic logP stood at 3.01 under setting [1] and 3.89 under setting [2].

Turning to `COc1ccc(C2CCC(=O)N2C(=O)OC(C)(C)C)cc1` (centres unmarked) [III-8], the chromatographic logP under setting [1] was 2.43.

As for `Fc1ccc(C2CCC(c3ccc(OC(F)(F)F)cc3)=N2)cc1` (centres unmarked) [Example 65], the chromatographic logP was found to be 2.23 under setting [1] and 4.31 under setting [2].

Take `Fc1ccc(C2CCC(c3c(Cl)cccc3Cl)=N2)cc1` (centres unmarked) [Example 37]: the chromatographic logP under setting [1] came to 3.78 and the chromatographic logP under setting [2] was 3.95.
